The text below walks through data of ChEMBL document CHEMBL1125993, “The function of S1 subsite pocket of carboxypeptidase A” (Bioorg Med Chem Lett, 1991).

The assay has as its target T1, Carboxypeptidase A1 (Bos taurus, UniProt P00730).
T1 sequence (P00730 whole entry): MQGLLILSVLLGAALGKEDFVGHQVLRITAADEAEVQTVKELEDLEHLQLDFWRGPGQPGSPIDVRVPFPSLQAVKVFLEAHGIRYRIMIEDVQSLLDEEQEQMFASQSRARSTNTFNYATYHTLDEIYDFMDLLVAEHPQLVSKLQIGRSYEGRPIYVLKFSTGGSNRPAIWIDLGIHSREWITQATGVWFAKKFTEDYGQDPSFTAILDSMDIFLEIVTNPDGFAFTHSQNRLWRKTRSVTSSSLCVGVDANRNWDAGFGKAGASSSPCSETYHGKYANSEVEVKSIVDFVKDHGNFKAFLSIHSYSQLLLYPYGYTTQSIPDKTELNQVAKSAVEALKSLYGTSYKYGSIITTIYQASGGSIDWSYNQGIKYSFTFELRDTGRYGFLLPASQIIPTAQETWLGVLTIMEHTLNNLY
The assay is described as follows: Compound was evaluated for binding affinity against carboxypeptidase A (CPA), expressed as inhibitory constant (Ki).
`O=C(O)C(CS)Cc1ccc(Cl)cc1` (centres undefined): the Ki was determined as 160 nM. To `CC(c1ccccc1)C(CS)C(=O)O` (centres undefined) belongs 105 nM; to `CCC(c1ccccc1)C(CS)C(=O)O` (centres undefined), 1500 nM. `O=C(O)C(CS)Cc1ccc(Br)cc1` (centres undefined) registered a Ki of 150 nM. Compared with the last compound, the Ki is about 10-fold lower.

As usually defined, the Ki is a dissociation constant, usually derived from enzyme kinetics or from competition with a known ligand. The low end stands for a stronger hold on the target, the high end for a looser hold on the target.
